This is an account of results in ChEMBL document CHEMBL4196068, “Synthesis, molecular modeling and evaluation of α-glucosidase inhibition activity of 3,4-dihydroxy piperidines” (Eur J Med Chem, 2018).

The nature of assay [1]: Inhibition of Saccharomyces cerevisiae alpha-glucosidase using p-nitrophenyl-alpha-D-glucopyranoside as substrate preincubated for 15 to 20 mins followed by substrate addition measured after 45 to 60 mins by spectrophotometric analysis.
In assay [2] the test system is Saccharomyces cerevisiae. Put plainly: Potency index, ratio of voglibose IC50 to compound IC50 for inhibition of Saccharomyces cerevisiae alpha-glucosidase.
Assay [3] concerns Saccharomyces cerevisiae. Put plainly: Potency index, ratio of acarbose IC50 to compound IC50 for inhibition of Saccharomyces cerevisiae alpha-glucosidase.
In assay [4] the test system is Saccharomyces cerevisiae. Put plainly: Potency index, ratio of miglitol IC50 to compound IC50 for inhibition of Saccharomyces cerevisiae alpha-glucosidase.

A word on the IC50: it is the concentration that inhibits the measured activity by half. Lower therefore signals greater potency in that assay. Take `O=C(CCc1ccc(O)cc1)Nc1ccc(CCC(=O)N2CC[C@@H](O)[C@H](O)C2)cc1` (relative stereo): 488 µM corresponded to half-maximal inhibition in assay [1] (IC50).

On to `O=C(Nc1ccc(CCC(=O)N2CC[C@H](O)[C@H](O)C2)cc1)c1ccsc1` (relative stereo), for which the IC50 in assay [1] is 267 µM.

With `O=C(/C=C/c1ccc(C(F)(F)F)cc1)Nc1ccc(CCC(=O)N2CC[C@@H](O)[C@H](O)C2)cc1` (relative stereo), the IC50 in assay [1] was 710 µM.

`O=C(CCc1ccc(O)cc1)N1CC[C@@H](O)[C@@H](O)C1` (relative stereo) gave an IC50 in assay [1] of 292 µM.

Turning to `O=C(CCc1ccccc1)N1CC[C@@H](O)[C@@H](O)C1` (relative stereo), in assay [1], the IC50 worked out at 994 µM.

Take `O=C(/C=C/c1ccsc1)Nc1ccc(CCC(=O)N2CC[C@H](O)[C@H](O)C2)cc1` (relative stereo): the midpoint of inhibition in assay [1], the IC50, lay at 667 µM.

For `O=C(CCc1ccc(O)cc1)Nc1ccc(CCC(=O)N2CC[C@H](O)[C@H](O)C2)cc1` (relative stereo), inhibition in assay [1] was half-maximal at 284 µM (IC50).

Take `Nc1ccc(CCC(=O)N2CC[C@@H](O)[C@@H](O)C2)cc1` (relative stereo): in assay [1], the IC50 amounted to 211 µM. In addition, the Ratio IC50 in the assay on Saccharomyces cerevisiae [2], in the assay on Saccharomyces cerevisiae [3] and in the assay on Saccharomyces cerevisiae [4] was 2 to 3 each time.

In assay [1], `CC(C)(C)OC(=O)Nc1ccc(CCC(=O)Nc2ccc(CCC(=O)N3CC[C@H](O)[C@H](O)C3)cc2)cc1` (relative stereo) registered an IC50 of 383 µM.

`O=C(CCc1ccsc1)N1CC[C@H](O)[C@@H](O)C1` (relative stereo) gave an IC50 in assay [1] of 152 µM.

As for `Nc1ccc(CCC(=O)Nc2ccc(CCC(=O)N3CC[C@@H](O)[C@H](O)C3)cc2)cc1` (relative stereo), half-maximal inhibition in assay [1] (IC50) required 384 µM.

The molecule `CC(C)(C)OC(=O)Nc1ccc(CCC(=O)N2CC[C@@H](O)[C@@H](O)C2)cc1` (relative stereo) displayed an IC50 in assay [1] of 663 µM.

`O=C(CCc1ccc(C(F)(F)F)cc1)N1CC[C@@H](O)[C@@H](O)C1` (relative stereo) came in with an IC50 in assay [1] of 742 µM. This IC50 and that of the molecule before are within 1.5-fold of each other.

In turn, `O=C(/C=C/c1ccc(C(F)(F)F)cc1)Nc1ccc(CCC(=O)N2CC[C@H](O)[C@H](O)C2)cc1` (relative stereo) registered an IC50 in assay [1] of 890 µM.

As to `O=C(CCc1ccc(C(F)(F)F)cc1)Nc1ccc(CCC(=O)N2CC[C@H](O)[C@H](O)C2)cc1` (relative stereo), in assay [1], the IC50 was determined as 479 µM.

Molecule `Cn1c(CCC(=O)N2CC[C@@H](O)[C@@H](O)C2)cc2ccccc21` (relative stereo) displayed an IC50 in assay [1] of 389 µM.

As to `CC(C)(C)OC(=O)Nc1ccc(CCC(=O)Nc2ccc(CCC(=O)N3CC[C@@H](O)[C@H](O)C3)cc2)cc1` (relative stereo), half-maximal inhibition in assay [1] (IC50) was put at 746 µM.

In assay [1], `Nc1ccc(CCC(=O)N2CC[C@H](O)[C@@H](O)C2)cc1` (relative stereo) displayed an IC50 of 289 µM. Against the preceding molecule, the IC50 is about 2.6-fold lower.

Turning to `O=C(/C=C/c1ccsc1)N1CC[C@@H](O)[C@@H](O)C1` (relative stereo), the midpoint of inhibition in assay [1], the IC50, lay at 888 µM.

With `O=S(=O)(c1ccc(OC(F)(F)F)cc1)N1CC[C@@H](O)[C@@H](O)C1` (relative stereo), in assay [1], the IC50 came out at 465 µM.

Molecule `O=C(CCc1ccc(N(S(=O)(=O)c2ccc(C(F)(F)F)cc2)S(=O)(=O)c2ccc(C(F)(F)F)cc2)cc1)N1CC[C@H](O)[C@H](O)C1` (relative stereo) showed an IC50 in assay [1] of 594 µM.

Molecule `O=C(CCc1ccc(NS(=O)(=O)c2ccc(F)cc2)cc1)N1CC[C@H](O)[C@H](O)C1` (relative stereo) registered an IC50 in assay [1] of 749 µM.

In turn, `O=C(CCc1ccc(NS(=O)(=O)c2ccc(C(F)(F)F)cc2)cc1)N1CC[C@H](O)[C@H](O)C1` (relative stereo) came in with an IC50 in assay [1] of 103 µM. Besides, the Ratio IC50 in the assay on Saccharomyces cerevisiae [2], with Saccharomyces cerevisiae [3] and in the assay with Saccharomyces cerevisiae [4] was 3 to 4 in each case.

As for `O=C(/C=C/c1ccc(O)cc1)N1CC[C@@H](O)[C@@H](O)C1` (relative stereo), the IC50 in assay [1] amounted to 442 µM.

Molecule `Nc1ccc(CCC(=O)Nc2ccc(CCC(=O)N3CC[C@H](O)[C@H](O)C3)cc2)cc1` (relative stereo) yielded an IC50 in assay [1] of 247 µM.

`O=C(CCc1ccc(O)cc1)N1CC[C@H](O)[C@@H](O)C1` (relative stereo) showed an IC50 in assay [1] of 422 µM.

On to `O=C(/C=C/c1ccc(F)cc1)Nc1ccc(CCC(=O)N2CC[C@H](O)[C@H](O)C2)cc1` (relative stereo), for which inhibition in assay [1] was half-maximal at 349 µM (IC50). The IC50 values of the last two molecules are within 1.5-fold of each other.

Turning to `C[C@H]1O[C@H](O[C@H]2[C@H](O)[C@@H](O)[C@@H](O[C@H]3[C@H](O)[C@@H](O)C(O)O[C@@H]3CO)O[C@@H]2CO)[C@H](O)[C@@H](O)[C@@H]1N[C@H]1C=C(CO)[C@@H](O)[C@H](O)[C@H]1O` (stereo partly specified) [ACARBOSE], the IC50 in assay [1] worked out at 360 µM. This IC50 and that of the molecule before are within 1.5-fold of each other.

Molecule `OCCN1C[C@H](O)[C@@H](O)[C@H](O)[C@H]1CO` [MIGLITOL] showed an IC50 in assay [1] of 462 µM.

As to `OCC(CO)N[C@H]1C[C@](O)(CO)[C@@H](O)[C@H](O)[C@H]1O` [VOGLIBOSE], the IC50 in assay [1] worked out at 325 µM.
